Source: ChEMBL document CHEMBL4004803, “Syntheses and antibacterial activity of soluble 9-bromo substituted indolizinoquinoline-5,12-dione derivatives” (Eur J Med Chem, 2017)
≈ marks a conversion by molar mass, not a printed value.

Tests used:
Format in all cases: functional
[1] = test system: Staphylococcus aureus; assay: Antibacterial activity against methicillin-resistant Staphylococcus aureus 10281-2 clinical isolate after 20 to 24 hrs by two-fold microdilution method
[2] = test system: Staphylococcus aureus; assay: Antibacterial activity against methicillin-resistant Staphylococcus aureus 1216052 clinical isolate after 20 to 24 hrs by two-fold microdilution method
[3] = test system: Staphylococcus aureus; assay: Antibacterial activity against methicillin-resistant Staphylococcus aureus 20106-2 clinical isolate after 20 to 24 hrs by two-fold microdilution method
[4] = test system: Staphylococcus aureus; assay: Antibacterial activity against methicillin-resistant Staphylococcus aureus 110834 clinical isolate after 20 to 24 hrs by two-fold microdilution method
[5] = test system: Staphylococcus aureus; assay: Antibacterial activity against methicillin-resistant Staphylococcus aureus 131215 clinical isolate after 20 to 24 hrs by two-fold microdilution method
[6] = test system: Staphylococcus aureus; assay: Antibacterial activity against methicillin-resistant Staphylococcus aureus 831024 clinical isolate after 20 to 24 hrs by two-fold microdilution method
[7] = test system: Staphylococcus aureus; assay: Antibacterial activity against methicillin-resistant Staphylococcus aureus 121969 clinical isolate after 20 to 24 hrs by two-fold microdilution method
[8] = test system: Staphylococcus aureus; assay: Antibacterial activity against methicillin-resistant Staphylococcus aureus 1024004-2 clinical isolate after 20 to 24 hrs by two-fold microdilution method
[9] = test system: Staphylococcus aureus; assay: Antibacterial activity against methicillin-resistant Staphylococcus aureus 110432 clinical isolate after 20 to 24 hrs by two-fold microdilution method
[10] = test system: Staphylococcus aureus; assay: Antibacterial activity against methicillin-resistant Staphylococcus aureus 20339 clinical isolate after 20 to 24 hrs by two-fold microdilution method
[11] = test system: Staphylococcus aureus; assay: Antibacterial activity against methicillin-resistant Staphylococcus aureus 112106 clinical isolate after 20 to 24 hrs by two-fold microdilution method
[12] = test system: Staphylococcus aureus; assay: Antibacterial activity against methicillin-resistant Staphylococcus aureus 822030 clinical isolate after 20 to 24 hrs by two-fold microdilution method
[13] = test system: Staphylococcus aureus; assay: Antibacterial activity against methicillin-resistant Staphylococcus aureus 202045 clinical isolate after 20 to 24 hrs by two-fold microdilution method
[14] = test system: Staphylococcus aureus; assay: Antibacterial activity against methicillin-resistant Staphylococcus aureus 10844 clinical isolate after 20 to 24 hrs by two-fold microdilution method
[15] = test system: Staphylococcus aureus; assay: Antibacterial activity against methicillin-resistant Staphylococcus aureus 921026 clinical isolate after 20 to 24 hrs by two-fold microdilution method
[16] = test system: Staphylococcus aureus; assay: Antibacterial activity against methicillin-resistant Staphylococcus aureus 1113041 clinical isolate after 20 to 24 hrs by two-fold microdilution method
[17] = test system: Streptococcus pyogenes; assay: Antibacterial activity against Streptococcus pyogenes ATCC 19615 after 20 to 24 hrs by two-fold microdilution method
[18] = test system: Staphylococcus aureus; assay: Antibacterial activity against methicillin-resistant Staphylococcus aureus 614019 clinical isolate after 20 to 24 hrs by two-fold microdilution method
[19] = test system: Staphylococcus aureus; assay: Antibacterial activity against methicillin-resistant Staphylococcus aureus 531220 clinical isolate after 20 to 24 hrs by two-fold microdilution method
[20] = test system: Staphylococcus aureus; assay: Antibacterial activity against methicillin-resistant Staphylococcus aureus GLH14 clinical isolate after 20 to 24 hrs by two-fold microdilution method
[21] = test system: Staphylococcus aureus; assay: Antibacterial activity against methicillin-resistant Staphylococcus aureus 118038 clinical isolate after 20 to 24 hrs by two-fold microdilution method
[22] = test system: Staphylococcus aureus; assay: Antibacterial activity against methicillin-resistant Staphylococcus aureus 110328-1 clinical isolate after 20 to 24 hrs by two-fold microdilution method
[23] = test system: Staphylococcus aureus; assay: Antibacterial activity against methicillin-resistant Staphylococcus aureus GLH15 clinical isolate after 20 to 24 hrs by two-fold microdilution method
[24] = test system: Staphylococcus aureus; assay: Antibacterial activity against methicillin-resistant Staphylococcus aureus 122820-2 clinical isolate after 20 to 24 hrs by two-fold microdilution method
[25] = test system: Staphylococcus aureus; assay: Antibacterial activity against methicillin-resistant Staphylococcus aureus 122710-2 clinical isolate after 20 to 24 hrs by two-fold microdilution method
[26] = test system: Staphylococcus aureus; assay: Antibacterial activity against methicillin-resistant Staphylococcus aureus 1026021 clinical isolate after 20 to 24 hrs by two-fold microdilution method
[27] = test system: Staphylococcus aureus; assay: Antibacterial activity against methicillin-resistant Staphylococcus aureus 304243 clinical isolate after 20 to 24 hrs by two-fold microdilution method
[28] = test system: Staphylococcus aureus; assay: Antibacterial activity against methicillin-resistant Staphylococcus aureus 102849 clinical isolate after 20 to 24 hrs by two-fold microdilution method
[29] = test system: Staphylococcus aureus; assay: Antibacterial activity against methicillin-resistant Staphylococcus aureus 414244 clinical isolate after 20 to 24 hrs by two-fold microdilution method
[30] = test system: Staphylococcus aureus; assay: Antibacterial activity against methicillin-resistant Staphylococcus aureus 120827 clinical isolate after 20 to 24 hrs by two-fold microdilution method
[31] = test system: Staphylococcus aureus; assay: Antibacterial activity against […] Staphylococcus aureus ATCC 25923 after 20 to 24 hrs by two-fold microdilution method
[32] = test system: Staphylococcus aureus; assay: Antibacterial activity against methicillin-resistant Staphylococcus aureus 221014 clinical isolate after 20 to 24 hrs by two-fold microdilution method
[33] = test system: Staphylococcus aureus; assay: Antibacterial activity against methicillin-resistant Staphylococcus aureus 908046 clinical isolate after 20 to 24 hrs by two-fold microdilution method
[34] = test system: Staphylococcus aureus; assay: Antibacterial activity against methicillin-resistant Staphylococcus aureus 111423 clinical isolate after 20 to 24 hrs by two-fold microdilution method
[35] = test system: Staphylococcus aureus; assay: Antibacterial activity against methicillin-resistant Staphylococcus aureus 1029025 clinical isolate after 20 to 24 hrs by two-fold microdilution method
[36] = test system: Staphylococcus aureus; assay: Antibacterial activity against methicillin-resistant Staphylococcus aureus 1107027 clinical isolate after 20 to 24 hrs by two-fold microdilution method
[37] = test system: Staphylococcus aureus; assay: Antibacterial activity against methicillin-resistant Staphylococcus aureus 123152 clinical isolate after 20 to 24 hrs by two-fold microdilution method
[38] = test system: Staphylococcus aureus; assay: Antibacterial activity against methicillin-resistant Staphylococcus aureus 1108204 clinical isolate after 20 to 24 hrs by two-fold microdilution method
[39] = test system: Staphylococcus aureus; assay: Antibacterial activity against methicillin-resistant Staphylococcus aureus 1012029 clinical isolate after 20 to 24 hrs by two-fold microdilution method
[40] = test system: Staphylococcus aureus; assay: Antibacterial activity against methicillin-resistant Staphylococcus aureus 121026 clinical isolate after 20 to 24 hrs by two-fold microdilution method
[41] = test system: Staphylococcus aureus; assay: Antibacterial activity against methicillin-resistant Staphylococcus aureus 1023043 clinical isolate after 20 to 24 hrs by two-fold microdilution method
[42] = test system: Staphylococcus aureus; assay: Antibacterial activity against methicillin-resistant Staphylococcus aureus 503025 clinical isolate after 20 to 24 hrs by two-fold microdilution method
[43] = test system: Staphylococcus aureus; assay: Antibacterial activity against methicillin-resistant Staphylococcus aureus clinical isolate after 20 to 24 hrs by two-fold microdilution method
[44] = test system: Staphylococcus aureus; assay: Antibacterial activity against methicillin-resistant Staphylococcus aureus 829034 clinical isolate after 20 to 24 hrs by two-fold microdilution method
[45] = test system: Staphylococcus aureus; assay: Antibacterial activity against methicillin-resistant Staphylococcus aureus 111625 clinical isolate after 20 to 24 hrs by two-fold microdilution method
[46] = test system: Staphylococcus aureus; assay: Antibacterial activity against methicillin-resistant Staphylococcus aureus 109016 clinical isolate after 20 to 24 hrs by two-fold microdilution method
[47] = test system: Staphylococcus aureus; assay: Antibacterial activity against methicillin-resistant Staphylococcus aureus 221022 clinical isolate after 20 to 24 hrs by two-fold microdilution method

**Q.** Which results are given for `O=C1c2cccnc2C(=O)c2c1c(C(=O)OCCCCCN1CCOCC1)c1ccc(Br)cn21`?
**A.** MIC [1]: ≤ 0.0078 µg/mL; MIC [2]: 16 µg/mL (≈ 30.4 µM); MIC [3]: 0.125 µg/mL (≈ 0.237 µM); MIC [4]: 0.031 µg/mL (≈ 0.0589 µM); MIC [5]: 0.016 µg/mL (≈ 0.0304 µM); MIC [6]: 0.063 µg/mL (≈ 0.12 µM); MIC [7]: 0.063 µg/mL (≈ 0.12 µM); MIC [8]: 0.125 µg/mL (≈ 0.237 µM); MIC [9]: ≤ 0.0078 µg/mL; MIC [10]: 0.063 µg/mL (≈ 0.12 µM); MIC [11]: 0.031 µg/mL (≈ 0.0589 µM); MIC [12]: 0.031 µg/mL (≈ 0.0589 µM); MIC [13]: 0.016 µg/mL (≈ 0.0304 µM); MIC [14]: ≤ 0.0078 µg/mL; MIC [15]: ≤ 0.0078 µg/mL; MIC [16]: ≤ 0.0078 µg/mL; MIC [17]: 8 µg/mL (≈ 15.2 µM); MIC [18]: 0.031 µg/mL (≈ 0.0589 µM); MIC [19]: ≤ 0.0078 µg/mL; MIC [20]: 0.031 µg/mL (≈ 0.0589 µM); MIC [21]: ≤ 0.0078 µg/mL; MIC [22]: 0.031 µg/mL (≈ 0.0589 µM); MIC [23]: 0.031 µg/mL (≈ 0.0589 µM); MIC [24]: 0.031 µg/mL (≈ 0.0589 µM); MIC [25]: ≤ 0.0078 µg/mL; MIC [26]: 16 µg/mL (≈ 30.4 µM); MIC [27]: 0.031 µg/mL (≈ 0.0589 µM); MIC [28]: 0.063 µg/mL (≈ 0.12 µM); MIC [29]: 0.063 µg/mL (≈ 0.12 µM); MIC [30]: ≤ 0.0078 µg/mL; MIC [31]: 0.016 µg/mL (≈ 0.0304 µM); MIC [32]: 0.031 µg/mL (≈ 0.0589 µM); MIC [33]: 0.031 µg/mL (≈ 0.0589 µM); MIC [34]: 16 µg/mL (≈ 30.4 µM); MIC [35]: 0.031 µg/mL (≈ 0.0589 µM); MIC [36]: ≤ 0.0078 µg/mL; MIC [37]: 0.031 µg/mL (≈ 0.0589 µM); MIC [38]: 0.25 µg/mL (≈ 0.475 µM); MIC [39]: ≤ 0.0078 µg/mL; MIC [40]: ≤ 0.0078 µg/mL; MIC [41]: 0.031 µg/mL (≈ 0.0589 µM); MIC [42]: 0.031 µg/mL (≈ 0.0589 µM); MIC50 [43]: 0.031 µg/mL (≈ 0.0589 µM); MIC90 [43]: 0.125 µg/mL (≈ 0.237 µM); MIC [44]: 0.125 µg/mL (≈ 0.237 µM); MIC [45]: ≤ 0.0078 µg/mL; MIC [46]: ≤ 0.0078 µg/mL; MIC [47]: 0.031 µg/mL (≈ 0.0589 µM)
